biological target: Nanoluciferase-BRD9 fusion protein (Homo sapiens (Human), UniProt Q9H8M2); experiment: SYO1 BRD9 NanoLuc degradation assay; type: cell-based; conditions: Table 5B; SYO-1 cells expressing 3×FLAG-NLuc-BRD9, 6 hours; read-out: SYO1 BRD9-NanoLuc degradation IC50
Experimental: Procedure: A stable SYO-1 cell line expressing 3×FLAG-NLuc-BRD9 was generated. On day 0 cells were seeded in 30 μL media into each well of 384-well cell culture plates. The seeding density was 8000 cells/well. […] Subsequently plates were incubated for 6 hours in a standard tissue culture incubator and equilibrated at room temperature for 15 minutes. Nanoluciferase activity was measured by adding 15 μL of freshly prepared Nano-Glo Luciferase Assay Reagent (Promega N1130), shaking the plates for 10 minutes and reading the bioluminescence using an EnVision reader.
DMSO treated cells are employed as High Control (HC) and 1 μM of a known BRD9 degrader standard treated cells are employed as Low Control (LC).

Nanoluciferase-BRD9 fusion protein, sequence (Q9H8M2 whole entry, the tested form may be a part): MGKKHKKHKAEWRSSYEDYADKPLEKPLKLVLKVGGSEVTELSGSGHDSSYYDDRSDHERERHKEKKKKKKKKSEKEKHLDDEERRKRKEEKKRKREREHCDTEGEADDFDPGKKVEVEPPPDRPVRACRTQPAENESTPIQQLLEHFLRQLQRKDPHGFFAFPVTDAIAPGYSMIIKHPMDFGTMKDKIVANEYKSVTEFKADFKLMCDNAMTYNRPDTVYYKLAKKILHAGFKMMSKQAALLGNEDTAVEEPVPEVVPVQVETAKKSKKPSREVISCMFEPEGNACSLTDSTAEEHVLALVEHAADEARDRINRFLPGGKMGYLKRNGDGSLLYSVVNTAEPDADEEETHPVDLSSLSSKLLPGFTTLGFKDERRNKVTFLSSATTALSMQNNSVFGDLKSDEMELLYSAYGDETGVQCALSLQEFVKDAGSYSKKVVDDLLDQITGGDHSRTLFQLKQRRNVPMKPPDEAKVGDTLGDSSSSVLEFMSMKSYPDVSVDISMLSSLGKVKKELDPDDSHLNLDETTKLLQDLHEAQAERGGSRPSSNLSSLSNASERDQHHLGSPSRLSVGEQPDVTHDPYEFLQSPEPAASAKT

Structure (SMILES)	DC50 [nM]
COc1cc(-c2cn(C)c(=O)c3cnccc23)cc(OC)c1CN1CC(CC(=O)N2CC3(CCN(c4ccc5c(c4)C(=O)N(C4CCC(=O)NC4=O)C5=O)CC3)C2)C1 (stereo not drawn) [Compound D190]	10 to 100
COc1cc(-c2cn(C)c(=O)c3cnccc23)cc(OC)c1CN1CC(CC(=O)N2CCC3(CC2)CCN(c2ccc4c(c2)C(=O)N(C2CCC(=O)NC2=O)C4=O)C3)C1 (stereo not drawn) [Compound D191]	< 10
COc1cc(-c2cn(C)c(=O)c3cnccc23)cc(OC)c1CN1CC(CC(=O)N2CCC3(C2)CN(c2ccc4c(c2)C(=O)N(C2CCC(=O)NC2=O)C4=O)C3)C1 (stereo not drawn) [Compound D193]	100 to 1000
COc1cc(-c2cn(C)c(=O)c3cnccc23)cc(OC)c1CN1CC(CC(=O)NC2CC3(C2)CN(c2ccc4c(c2)C(=O)N(C2CCC(=O)NC2=O)C4=O)C3)C1 (stereo not drawn) [Compound D194]	< 10
COc1cc(-c2cn(C)c(=O)c3cnccc23)cc(OC)c1CN1CC(CC(=O)N2CC3(C2)CN(c2ccc4c(c2)C(=O)N(C2CCC(=O)NC2=O)C4=O)C3)C1 (stereo not drawn) [Compound D195]	10 to 100
COc1cc(-c2cn(C)c(=O)c3cnccc23)cc(OC)c1CN1CC2(CCN(C(=O)C#Cc3ccc4c(c3)C(=O)N(C3CCC(=O)NC3=O)C4=O)CC2)C1 (stereo not drawn) [Compound D198]	< 10
COc1cc(-c2cn(C)c(=O)c3cnccc23)cc(OC)c1CN(C)C(=O)CCCCN1CC2(CCN(c3ccc4c(c3)C(=O)N(C3CCC(=O)NC3=O)C4=O)CC2)C1 (stereo not drawn) [Compound D201]	< 10
COc1cc(-c2cn(C)c(=O)c3cnccc23)cc(OC)c1CN(C)C(=O)CCCCN1CCC2(C1)CN(c1ccc3c(c1)C(=O)N(C1CCC(=O)NC1=O)C3=O)C2 (stereo not drawn) [Compound D203]	< 10
COc1cc(-c2cn(C)c(=O)c3cnccc23)cc(OC)c1CN(C)C(=O)CCCCN1CCC2(CC1)CC(Oc1ccc3c(c1)C(=O)N(C1CCC(=O)NC1=O)C3=O)C2 (stereo not drawn) [Compound D208]	< 10
COc1cc(-c2cn(C)c(=O)c3cnccc23)cc(OC)c1CN1CC(CC(=O)N2CCC3C2CN3c2ccc3c(c2)C(=O)N(C2CCC(=O)NC2=O)C3=O)C1 (stereo not drawn) [Compound D210]	10 to 100
COc1cc(-c2cn(C)c(=O)c3cnccc23)cc(OC)c1CN1CC2(CCN(CCCC#Cc3ccc4c(c3)C(=O)N(C3CCC(=O)NC3=O)C4=O)C2)C1 (stereo not drawn) [Compound D211]	< 10
COc1cc(-c2cn(C)c(=O)c3cnccc23)cc(OC)c1CN1CC2(CCN(CCCC#Cc3ccc4c(c3)C(=O)N(C3CCC(=O)NC3=O)C4=O)CC2)C1 (stereo not drawn) [Compound D212]	10 to 100
COc1cc(-c2cn(C)c(=O)c3cnccc23)cc(OC)c1CN1CCC2(CC1)CCN(CCCC#Cc1ccc3c(c1)C(=O)N(C1CCC(=O)NC1=O)C3=O)C2 (stereo not drawn) [Compound D213]	< 10
COc1cc(-c2cn(C)c(=O)c3cnccc23)cc(OC)c1CN1CCC2(CC1)CN(C(=O)CCC#Cc1ccc3c(c1)C(=O)N(C1CCC(=O)NC1=O)C3=O)C2 (stereo not drawn) [Compound D217]	< 10
COc1cc(-c2cn(C)c(=O)c3cnccc23)cc(OC)c1CN1CC2(CCN(C(=O)CCC#Cc3ccc4c(c3)C(=O)N(C3CCC(=O)NC3=O)C4=O)C2)C1 (stereo not drawn) [Compound D218]	< 10
COc1cc(-c2cn(C)c(=O)c3cnccc23)cc(OC)c1CN1CC2(CCN(C(=O)CCC#Cc3ccc4c(c3)C(=O)N(C3CCC(=O)NC3=O)C4=O)CC2)C1 (stereo not drawn) [Compound D219]	< 10
COc1cc(-c2cn(C)c(=O)c3cnccc23)cc(OC)c1CN(C)CCCCN1CCC2(CCN(c3ccc4c(c3)C(=O)N(C3CCC(=O)NC3=O)C4=O)C2)C1 (stereo not drawn) [Compound D225]	< 10
COc1cc(-c2cn(C)c(=O)c3cnccc23)cc(OC)c1CN(C)CCCCN1CCC2(CC1)CC(Oc1ccc3c(c1)C(=O)N(C1CCC(=O)NC1=O)C3=O)C2 (stereo not drawn) [Compound D228]	< 10
COc1cc(-c2cn(C)c(=O)c3cnccc23)cc(OC)c1CN(C)C(=O)CCCCN1CC(Oc2ccc3c(c2)C(=O)N(C2CCC(=O)NC2=O)C3=O)C1 (stereo not drawn) [Compound D229]	< 10
COc1cc(-c2cn(C)c(=O)c3cnccc23)cc(OC)c1CN1CC(CC(=O)N[C@@H]2C[C@]23CCN(c2ccc4c(c2)C(=O)N(C2CCC(=O)NC2=O)C4=O)C3)C1 (stereo partly drawn) [Compound D231]	100 to 1000
COc1cc(-c2cn(C)c(=O)c3cnccc23)cc(OC)c1CN1CC(CC(=O)N[C@@H]2C[C@@]23CCN(c2ccc4c(c2)C(=O)N(C2CCC(=O)NC2=O)C4=O)C3)C1 (stereo partly drawn) [Compound D232]	10 to 100
COc1cc(-c2cn(C)c(=O)c3cnccc23)cc(OC)c1CN1CC(CC(=O)N2CC(Oc3ccc4c(c3)C(=O)N(C3CCC(=O)NC3=O)C4=O)C2)C1 (stereo not drawn) [Compound D233]	100 to 1000
COc1cc(-c2cn(C)c(=O)c3cnccc23)cc(OC)c1CN1CCN(CC#Cc2ccc3c(c2)C(=O)N(C2CCC(=O)NC2=O)C3=O)CC1 (stereo not drawn) [Compound D237]	< 10

The remaining lines, values ahead:

DC50 [nM]	Structure (SMILES)
100 to 1000	COc1cc(-c2cn(C)c(=O)c3cnccc23)cc(OC)c1CN1CC(CC(=O)N2CCC3(CCN(c4ccc5c(c4)C(=O)N(C4CCC(=O)NC4=O)C5=O)C3)C2)C1 (stereo not drawn) [Compound D192]
10 to 100	COc1cc(-c2cn(C)c(=O)c3cnccc23)cc(OC)c1CN1CCC2(CC1)CN(CCCC#Cc1ccc3c(c1)C(=O)N(C1CCC(=O)NC1=O)C3=O)C2 (stereo not drawn) [Compound D196]
< 10	COc1cc(-c2cn(C)c(=O)c3cnccc23)cc(OC)c1CN1CCC2(CC1)CN(C(=O)C#Cc1ccc3c(c1)C(=O)N(C1CCC(=O)NC1=O)C3=O)C2 (stereo not drawn) [Compound D197]
< 10	COc1cc(-c2cn(C)c(=O)c3cnccc23)cc(OC)c1CN1CCN(C(=O)CCC#Cc2ccc3c(c2)C(=O)N(C2CCC(=O)NC2=O)C3=O)CC1 (stereo not drawn) [Compound D199]
10 to 100	COc1cc(-c2cn(C)c(=O)c3cnccc23)cc(OC)c1CN1CC2(C1)CN(C(=O)CCC#Cc1ccc3c(c1)C(=O)N(C1CCC(=O)NC1=O)C3=O)C2 (stereo not drawn) [Compound D200]
< 10	COc1cc(-c2cn(C)c(=O)c3cnccc23)cc(OC)c1CN(C)C(=O)CCCCN1CCC2(CC1)CCN(c1ccc3c(c1)C(=O)N(C1CCC(=O)NC1=O)C3=O)C2 (stereo not drawn) [Compound D202]
< 10	COc1cc(-c2cn(C)c(=O)c3cnccc23)cc(OC)c1CN(C)C(=O)CCCCNC1CC2(C1)CN(c1ccc3c(c1)C(=O)N(C1CCC(=O)NC1=O)C3=O)C2 (stereo not drawn) [Compound D204]
< 10	COc1cc(-c2cn(C)c(=O)c3cnccc23)cc(OC)c1CN(C)C(=O)CCCCN1CCC2C1CN2c1ccc2c(c1)C(=O)N(C1CCC(=O)NC1=O)C2=O (stereo not drawn) [Compound D205]
< 10	COc1cc(-c2cn(C)c(=O)c3cnccc23)cc(OC)c1CN(C)C(=O)CCCCN1CC2(C1)CN(c1ccc3c(c1)C(=O)N(C1CCC(=O)NC1=O)C3=O)C2 (stereo not drawn) [Compound D206]
< 10	COc1cc(-c2cn(C)c(=O)c3cnccc23)cc(OC)c1CN(C)C(=O)CCCCN1CC2(CCC(Oc3ccc4c(c3)C(=O)N(C3CCC(=O)NC3=O)C4=O)C2)C1 (stereo not drawn) [Compound D207]
100 to 1000	COc1cc(-c2cn(C)c(=O)c3cnccc23)cc(OC)c1CN1CC(CC(=O)NC2CCC23CN(c2ccc4c(c2)C(=O)N(C2CCC(=O)NC2=O)C4=O)C3)C1 (stereo not drawn) [Compound D209]
< 10	COc1cc(-c2cn(C)c(=O)c3cnccc23)cc(OC)c1CN1CCN(CCCC#Cc2ccc3c(c2)C(=O)N(C2CCC(=O)NC2=O)C3=O)CC1 (stereo not drawn) [Compound D214]
< 10	COc1cc(-c2cn(C)c(=O)c3cnccc23)cc(OC)c1CN1CC2(CN(CCCC#Cc3ccc4c(c3)C(=O)N(C3CCC(=O)NC3=O)C4=O)C2)C1 (stereo not drawn) [Compound D215]
< 10	COc1cc(-c2cn(C)c(=O)c3cnccc23)cc(OC)c1CN1CCN(C(=O)C#Cc2ccc3c(c2)C(=O)N(C2CCC(=O)NC2=O)C3=O)CC1 (stereo not drawn) [Compound D216]
< 10	COc1cc(-c2cn(C)c(=O)c3cnccc23)cc(OC)c1CN1CCC2(CCC(C(=O)CCC#Cc3ccc4c(c3)C(=O)N(C3CCC(=O)NC3=O)C4=O)C2)CC1 (stereo not drawn) [Compound D220]
< 10	COc1cc(-c2cn(C)c(=O)c3cnccc23)cc(OC)c1CN1CCC(C(=O)N2CCC3(CC2)CC(Oc2ccc4c(c2)C(=O)N(C2CCC(=O)NC2=O)C4=O)C3)CC1 (stereo not drawn) [Compound D221]
< 10	COc1cc(-c2cn(C)c(=O)c3cnccc23)cc(OC)c1CN(C)CCCCN1CCC2(CC1)CN(c1ccc3c(c1)C(=O)N(C1CCC(=O)NC1=O)C3=O)C2 (stereo not drawn) [Compound D222]
< 10	COc1cc(-c2cn(C)c(=O)c3cnccc23)cc(OC)c1CN(C)CCCCN1CC2(CCN(c3ccc4c(c3)C(=O)N(C3CCC(=O)NC3=O)C4=O)CC2)C1 (stereo not drawn) [Compound D223]
< 10	COc1cc(-c2cn(C)c(=O)c3cnccc23)cc(OC)c1CN(C)CCCCN1CCC2(CC1)CCN(c1ccc3c(c1)C(=O)N(C1CCC(=O)NC1=O)C3=O)C2 (stereo not drawn) [Compound D224]
< 10	COc1cc(-c2cn(C)c(=O)c3cnccc23)cc(OC)c1CN(C)CCCCN1CCC2(C1)CN(c1ccc3c(c1)C(=O)N(C1CCC(=O)NC1=O)C3=O)C2 (stereo not drawn) [Compound D226]
< 10	COc1cc(-c2cn(C)c(=O)c3cnccc23)cc(OC)c1CN(C)CCCCN1CCC2C1CN2c1ccc2c(c1)C(=O)N(C1CCC(=O)NC1=O)C2=O (stereo not drawn) [Compound D227]
< 10	COc1cc(-c2cn(C)c(=O)c3cnccc23)cc(OC)c1CN(C)C(=O)CCCCN1CC2(CC(Oc3ccc4c(c3)C(=O)N(C3CCC(=O)NC3=O)C4=O)C2)C1 (stereo not drawn) [Compound D230]
10 to 100	COc1cc(-c2cn(C)c(=O)c3cnccc23)cc(OC)c1CN1CC(CC(=O)N2CC3(CC(Oc4ccc5c(c4)C(=O)N(C4CCC(=O)NC4=O)C5=O)C3)C2)C1 (stereo not drawn) [Compound D234]
< 10	COc1cc(-c2cn(C)c(=O)c3cnccc23)cc(OC)c1CN1CCC2(CC1)CN(CC#Cc1ccc3c(c1)C(=O)N(C1CCC(=O)NC1=O)C3=O)C2 (stereo not drawn) [Compound D235]
< 10	COc1cc(-c2cn(C)c(=O)c3cnccc23)cc(OC)c1CN1CCC2C(C1)CN2CC#Cc1ccc2c(c1)C(=O)N(C1CCC(=O)NC1=O)C2=O (stereo not drawn) [Compound D236]

— patent US11414416B1, “Compounds and uses thereof” (Foghorn Therapeutics Inc., priority 2019, dated 2022)
